# US20210379021A1 (Race Oncology Ltd., priority 2018, published 2021)
# Counter-ions that a name gives are not always drawn. Like-named read-outs stand apart in the source and are kept apart here.
# Assays:
# Human Platelets = conditions: cited from earlier work
# plasma proteins = conditions: cited from earlier work
# tumor cells = conditions: cited from earlier work
# calf thymus DNA = conditions: in vitro; cited from earlier work
# [1] = in vivo; cited from earlier work
# [2] = in vivo; cited from earlier work; remark: listed apart in the source
# Human tumor cells = conditions: cited from earlier work
# [3] = cited from earlier work
# [4] = system: hepatic microsomal enzymes; conditions: in vitro; specific metabolites not identified; cited from earlier work
# L-1210 leukemia cells = conditions: cited from earlier work
# [5] = in vivo; cited from earlier work; remark: listed apart in the source
# [6] = Assay of reconstituted bisantrene dihydrochloride diluted in i.v. bag, with or without 0.2-μm filter, glass vs plastic sample vials; format: physicochemical
# [7] = cited from earlier work; remark: listed apart in the source
# [8] = Filtration of 40 mg/mL stock mixture, content by HPLC; format: physicochemical; conditions: 5-μm, 1.2-μm and 0.2-μm filters
# Protocol: Finished vials are sealed under nitrogen and partial vacuum for storage. Storage of the vials is typically at 18° C. to 25° C.
# [9] = system: P-388 leukemia and B-16 melanoma; conditions: mouse, in vivo; cited from earlier work
# [10] = high doses; cited from earlier work
# [11] = cited from earlier work; remark: listed apart in the source
# [12] = cited from earlier work; remark: listed apart in the source
# [13] = system: colon 26, Lewis lung, Ridgway osteosarcoma, B16, Lieberman plasma cell, P388 or L1210 cancer cells; conditions: cited from earlier work
# DNA = conditions: hypoxic conditions; cited from earlier work
# [14] = cited from earlier work; remark: listed apart in the source
structure (smiles),measurement,setting,value
"C(=N\NC1=NCCN1)/c1c2ccccc2c(/C=N/NC2=NCCN2)c2ccccc12 [bisantrene, 9,10-anthracenedicarboxaldehyde-bis [(4,5-dihydro-1H-imidazole-2-yl) hydrazine] dihydrochloride]",effect on platelet aggregation,Human Platelets,inhibit platelet aggregation
same,bound to plasma proteins,plasma proteins,More than 95%
same,activity in clonogenic assays,"tumor cells; breast, small cell lung, large cell lung, squamous cell lung, ovarian, pancreatic, renal, adrenal, head and neck, sarcoma, gastric, lymphoma and melanoma tumor cells",Activity
same,cross resistance with Adriamycin and mitoxantrone,tumor cells,lack of cross resistance
same,activity in clonogenic assays,tumor cells; colorectal cancer,not in colorectal cancer
same,shape of DNA dissociation curves,calf thymus DNA,biphasic
same,cardiotoxicity,[1],not cardiotoxic
same,brain levels,[2],extremely low
same,distribution to lymph nodes and bone marrow,[2],did distribute
same,tissues with the highest concentration (in descending order),[2],"kidney, liver, gallbladder, spleen, lung, and heart"
same,sensitivity of human tumor cells,"Human tumor cells; breast, ovarian, renal, small cell and non-small cell lung cancer, lymphoma, acute myelogenous leukemia, melanoma, gastric, adrenal, head and neck cancer",sensitive
same,activity in human colon cancer,Human tumor cells; tested in vitro,inactive
same,activity in refractory malignant melanoma,[3]; Phase II,inactive
same,activity in phase I clinical trials,[3]; hepatocellular cancer and hypernephroma (one patient each),showed activity
same,activity in phase I clinical trials,"[3]; lymphoma, myeloma, melanoma, renal cancer, tumors of the bladder and lung",showed activity
same,activity in Phase II clinical trials,[3]; patients with metastatic breast cancer,active
same,activity in human colon cancer,"[3]; tested in vivo (Phase II, advanced colorectal cancer)",inactive
same,activity in phase I clinical trials,"[3]; two other hypernephroma patients, five-day schedule",activity was also observed
same,metabolism by hepatic microsomal enzymes,[4],substrate
same,DNA strand breaks typical of inhibition of DNA topoisomerase II enzymes,L-1210 leukemia cells,induce protein-associated DNA strand breaks
same,DNA supercoiling indicative of DNA intercalation,L-1210 leukemia cells,induce altered DNA supercoiling
same,precipitation of drug in the body,[5],precipitates in the body have been observed
same,assay after passage through 0.2-μm filter versus i.v. bag assay,[6]; sample collected in glass vials,approximately 5 % lower
same,assay after passage through 0.2-μm filter versus i.v. bag assay,[6]; sample collected in plastic vials,approximately matched
same,assay of fully diluted drug in the i.v. bag versus reconstituted drug in the finished vial,[6]; samples collected in glass vials,approximately 5 % lower
same,assay of fully diluted drug in the i.v. bag versus reconstituted drug in the finished vial,[6]; samples collected in plastic vials,no reduction
same,maximally tolerated dose,"[7]; daily×5, repeat every 4 week (Spiegel et al. 1982)",80 mg/m^2
same,maximally tolerated dose,[7]; monthly (every 3-4 week) (Von Hoff et al. 1981b),260 mg/m^2
same,maximally tolerated dose,"[7]; monthly (every 3-4 week), patients with poor bone marrow reserve",240 mg/mg^2
same,maximally tolerated dose,[7]; weekly×3 (Alberts et al. 1982),200 mg/m^2
same,maximally tolerated dose,"[7]; weekly×3, patients with poor bone marrow reserve (Alberts et al. 1982)",150 mg/mg^2
same,maximally tolerated dose,"[7]; weekly×3, repeat every 4-5 week (Yap et al. 1982)",150 mg/m^2
same,effect of removal of particulates on content in solution,[8],does not diminish
same,antitumor activity,[9],antitumor activity
same,toxicities observed,[10],"leukopenia, anorexia, diarrhea, injection site necrosis, enterocolitis, muscle degeneration, and pulmonary edema"
same,dose excreted in the urine,[11]; in vivo,Less than 7%
same,route by which the majority of the drug is eliminated,[11]; in vivo,hepatobiliary route
same,area under the plasma concentration×time curve,[11]; intravenous dose 260 mg/m^2,4.4 mg·h/mL
same,area under the plasma concentration×time curve,[11]; intravenous dose 340 mg/m^2,5.7 mg·h/mL
same,beta phase of elimination,[11]; plasma,approximately 1.5 hours
same,initial distributive phase of elimination,[11]; plasma,6 min
same,toxicity for which the Phase II study was terminated,[12]; heavily pretreated patients with metastatic breast cancer,significant local toxicity
same,alopecia (hair loss) compared with doxorubicin,"[12]; human, in vivo",less intense
same,anemia and cumulative myelosuppressive toxic effects,"[12]; human, in vivo",not encountered
same,cardiotoxicity in the clinic compared with other agents in its class,"[12]; human, in vivo",less cardiotoxicity
same,electrocardiographic changes while receiving the drug,"[12]; human, in vivo",No patients experienced electrocardiographic changes
same,fever,"[12]; human, in vivo",mild fever
same,major dose-limiting toxic effect,"[12]; human, in vivo",leukopenia
same,nausea or vomiting,"[12]; human, in vivo",very little nausea or vomiting
same,patients reporting malaise,"[12]; human, in vivo",up to one-half of patients
same,patients with anaphylactoid reactions following infusion,"[12]; human, in vivo",Up to 10%
same,phlebitis along peripheral veins used for drug infusion,"[12]; human, in vivo",severe phlebitis
same,radioangiocardiographic monitoring of cardiac function,"[12]; human, in vivo",no decrease in ejection fraction
same,recovery from myelosuppression,"[12]; human, in vivo",≤ 19 days
same,thrombocytopenia,"[12]; human, in vivo",mild
same,nadir for myelosuppression,[12]; schedule of every 3 to 4 weeks,9 days
same,activity in cancer models,"[13]; intravenously (i.v.), intraperitoneally (i.p.), or subcutaneously (s.c.)",effective
same,activity in cancer models,[13]; orally,inactive
same,cytotoxicity and DNA strand breaks,DNA,reduced
O=C([O-])O.[Na+] [sodium bicarbonate],effect of local injection on bisantrene extravasation necrosis,[14],blocked
